What follows are compounds tested against T1, Recombinant human HSD17B13 enzyme (Homo sapiens, UniProt Q7Z5P4) (assay: HSD17b13 NAD(P)H-Glo biochemical assay). Settings: 50 uM estradiol, 1 mM NAD+, NAD(P)H-Glo luminescence; read-out: HSD17β13 IC50.
T1 sequence (Q7Z5P4 20-300): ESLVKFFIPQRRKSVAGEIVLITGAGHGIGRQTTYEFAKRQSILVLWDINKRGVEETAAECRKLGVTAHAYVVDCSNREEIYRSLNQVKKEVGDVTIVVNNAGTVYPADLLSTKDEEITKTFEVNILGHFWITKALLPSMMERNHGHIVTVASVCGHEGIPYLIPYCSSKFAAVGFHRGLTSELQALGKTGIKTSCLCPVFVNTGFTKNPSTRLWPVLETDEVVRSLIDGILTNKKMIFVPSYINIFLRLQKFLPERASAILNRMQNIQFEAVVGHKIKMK
Procedure, shortened: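 Luminescent NAD(P)H-Glo read-out, taken after 1 hour at RT, measured cofactor reduction. Substrate and cofactor were estradiol at 50 uM and NAD+ at 1 mM final, reacted with the recombinant human enzyme for 3 hours at 37° C in 20 mM Tris pH7.4, 0.002% Tween-20, 0.02% BSA. Compound was pre-incubated with enzyme for 20 minutes at RT.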

**Q.** Which IC50 does the source give for `Cn1nc(-c2cc(C(F)(F)F)c(F)c(O)c2F)c2cnc(N3CCC(O)(c4ccccn4)CC3)nc21` [Compound 18.96, 1-(3-(2,4-Difluoro-3-hydroxy-5-(trifluoromethyl)phenyl)-1-methyl-1H-pyrazolo[3,4-d]pyrimidin-6-yl)-4-(pyridin-2-y1)piperidin-4-ol] here?
**A.** < 100 nM

**Q.** Which IC50 does the source give for `Cn1nc(-c2cc(C(F)(F)F)c(F)c(O)c2F)c2cnc(N3CCC(O)(c4ccncc4)CC3)nc21` [Compound 18.97, 1-(3-(2,4-Difluoro-3-hydroxy-5-(trifluoromethyl)phenyl)-1-methyl-1H-pyrazolo[3,4-d]pyrimidin-6-yl)-4-(pyridin-4-yl)piperidin-4-ol] here?
**A.** < 100 nM

**Q.** `Cn1nc(-c2cc(C(F)(F)F)c(F)c(O)c2F)c2cnc(N3CCCCC3COc3ccccc3)nc21` (stereo not drawn) [Compound 18.98, 2,6-Difluoro-3-(1-methyl-6-(2-(phenoxymethyl)piperidin-1-yl)-1H-pyrazolo[3,4-d]pyrimidin-3-yl)-5-(trifluoromethyl)phenol] was tested. Which IC50 did it give?
**A.** < 100 nM

**Q.** Which IC50 does the source give for `Cn1nc(-c2cc(C(F)(F)F)c(F)c(O)c2F)c2cnc(N3CCC4(CCCO4)CC3)nc21` [Compound 18.99, 2,6-Difluoro-3-(1-methyl-6-(1-oxa-8-azaspiro[4.5]decan-8-yl)-1H-pyrazolo[3,4-d]pyrimidin-3-y1)-5-(trifluoromethyl)phenol] here?
**A.** < 100 nM

**Q.** How did the IC50 turn out when `COC1(CO)CCN(c2ncc3c(-c4cc(C(F)(F)F)c(F)c(O)c4F)nn(C)c3n2)CC1` [Compound 18.100, 2,6-Difluoro-3-(6-(4-(hydroxymethyl)-4-methoxypiperidin-1-y1)-1-methyl-1H-pyrazolo[3,4-d]pyrimidin-3-yl)-5-(trifluoromethyl)phenol] was run?
**A.** < 100 nM

**Q.** Which IC50 does the source give for `CN1CCN(c2ncc3c(-c4cc(C(F)(F)F)c(F)c(O)c4F)nn(C)c3n2)CC1c1ncc[nH]1` (stereo not drawn) [Compound 18.101, 3-(6-(3-(1H-Imidazol-2-yl)-4-methylpiperazin-1-y1)-1-methyl-1H-pyrazolo[3,4-d]pyrimidin-3-yl)-2,6-difluoro-5-(trifluoromethyl)phenol] here?
**A.** 100 to 1000 nM

**Q.** How did the IC50 turn out when `Cn1nc(-c2cc(C(F)(F)F)c(F)c(O)c2F)c2cnc(N3CCOCC3(C)C)nc21` [Compound 18.102, 3-(6-(3,3-Dimethylmorpholino)-1-methyl-1H-pyrazolo[3,4-d]pyrimidin-3-y1)-2,6-difluoro-5-(trifluoromethyl)phenol] was run?
**A.** < 100 nM

**Q.** For `Cn1nc(-c2cc(C(F)(F)F)c(F)c(O)c2F)c2cnc(N3CCOC(C)(C)C3)nc21` [Compound 18.103, 3-(6-(2,2-Dimethylmorpholino)-1-methyl-1H-pyrazolo[3,4-d]pyrimidin-3-y1)-2,6-difluoro-5-(trifluoromethyl)phenol], which IC50 is on record?
**A.** < 100 nM

**Q.** How did the IC50 turn out when `Cn1nc(-c2cc(C(F)(F)F)c(F)c(O)c2F)c2cnc(N3CCOCC3C3CCC3)nc21` (stereo not drawn) [Compound 18.104, 3-(6-(3-Cyclobutylmorpholino)-1-methyl-1H-pyrazolo[3,4-d]pyrimidin-3-y1)-2,6-difluoro-5-(trifluoromethyl)phenol] was run?
**A.** < 100 nM

**Q.** `Cn1nc(-c2cc(C(F)(F)F)c(F)c(O)c2F)c2cnc(N3CCOC4(CC4)C3)nc21` [Compound 18.105, 2,6-Difluoro-3-(1-methyl-6-(4-oxa-7-azaspiro[2.5]octan-7-y1)-1H-pyrazolo[3,4-d]pyrimidin-3-y1)-5-(trifluoromethyl)phenol] was tested. Which IC50 did it give?
**A.** < 100 nM

**Q.** How did the IC50 turn out when `Cn1nc(-c2cc(C(F)(F)F)c(F)c(O)c2F)c2cnc(N3CCOC4(CCCC4)C3)nc21` [Compound 18.106, 2,6-Difluoro-3-(1-methyl-6-(6-oxa-9-azaspiro[4.5]decan-9-yl)-1H-pyrazolo[3,4-d]pyrimidin-3-y1)-5-(trifluoromethyl)phenol] was run?
**A.** < 100 nM

**Q.** How did the IC50 turn out when `Cn1nc(-c2cc(C(F)(F)F)c(F)c(O)c2F)c2cnc(N3CCOCC3CC(F)(F)F)nc21` (stereo not drawn) [Compound 18.107, 2,6-Difluoro-3-(1-methyl-6-(3-(2,2,2-trifluoroethyl)morpholino)-1H-pyrazolo[3,4-d]pyrimidin-3-y1)-5-(trifluoromethyl)phenol] was run?
**A.** < 100 nM

**Q.** For `Cn1nc(-c2cc(C(F)(F)F)c(F)c(O)c2F)c2cnc(N3CCC(C)(C)CC3)nc21` [Compound 18.108, 3-(6-(4,4-Dimethylpiperidin-1-yl)-1-methyl-1H-pyrazolo[3,4-d]pyrimidin-3-yl)-2,6-difluoro-5-(trifluoromethyl)phenol], which IC50 is on record?
**A.** < 100 nM

**Q.** Which IC50 does the source give for `Cn1nc(-c2cc(C(F)(F)F)c(F)c(O)c2F)c2cnc(N3CCN(S(C)(=O)=O)[C@@H](c4ccccc4)C3)nc21` [Compound 18.109, (S)-2,6-Difluoro-3-(1-methyl-6-(4-(methylsulfony1)-3-phenylpiperazin-1-y1)-1H-pyrazolo[3,4-d]pyrimidin-3-y1)-5-(trifluoromethyl)phenol] here?
**A.** < 100 nM

**Q.** How did the IC50 turn out when `Cn1nc(-c2cc(C(F)(F)F)c(F)c(O)c2F)c2cnc(N3CC4CC3CN4S(C)(=O)=O)nc21` (stereo not drawn) [Compound 18.110, 2,6-Difluoro-3-(1-methyl-6-(5-(methylsulfony1)-2,5-diazabicyclo[2.2.1]heptan-2-y1)-1H-pyrazolo[3,4-d]pyrimidin-3-yl)-5-(trifluoromethyl)phenol] was run?
**A.** < 100 nM

**Q.** For `Cn1nc(-c2cc(C(F)(F)F)c(F)c(O)c2F)c2cnc(N3CC4CCC(C3)N4S(C)(=O)=O)nc21` [Compound 18.111, 2,6-Difluoro-3-(1-methyl-6-(8-(methylsulfony1)-3,8-diazabicyclo[3.2.1]octan-3-yl)-1H-pyrazolo[3,4-d]pyrimidin-3-y1)-5-(trifluoromethyl)phenol], which IC50 is on record?
**A.** < 100 nM

**Q.** For `Cn1nc(-c2cc(C(F)(F)F)c(F)c(O)c2F)c2cnc(N3CCN(S(C)(=O)=O)C4(COC4)C3)nc21` [Compound 18.112, 2,6-Difluoro-3-(1-methyl-6-(5-(methylsulfonyl)-2-oxa-5,8-diazaspiro[3.5]nonan-8-yl)-1H-pyrazolo[3,4-d]pyrimidin-3-y1)-5-(trifluoromethyl)phenol], which IC50 is on record?
**A.** < 100 nM

**Q.** How did the IC50 turn out when `Cn1nc(-c2cc(C(F)(F)F)c(F)c(O)c2F)c2cnc(N3CCOC(C4CCCCC4)C3)nc21` (stereo not drawn) [Compound 18.113, 3-(6-(2-Cyclohexylmorpholino)-1-methyl-1H-pyrazolo[3,4-d]pyrimidin-3-yl)-2,6-difluoro-5-(trifluoromethyl)phenol] was run?
**A.** < 100 nM

**Q.** How did the IC50 turn out when `Cn1nc(-c2cc(C(F)(F)F)c(F)c(O)c2F)c2cnc(N3CCN(C(=O)c4ccccc4)CC3)nc21` [Compound 18.114, (4-(3-(2,4-Difluoro-3-hydroxy-5-(trifluoromethyl)phenyl)-1-methyl-1H-pyrazolo[3,4-d]pyrimidin-6-y1)piperazin-1-yl)(phenyl)methanone] was run?
**A.** < 100 nM

**Q.** Which IC50 does the source give for `Cn1nc(-c2cc(C(F)(F)F)c(F)c(O)c2F)c2cnc(N3CCN(C(=O)C4CCCCC4)CC3)nc21` [Compound 18.115, Cyclohexyl(4-(3-(2,4-difluoro-3-hydroxy-5-(trifluoromethyl)phenyl)-1-methyl-1H-pyrazolo[3,4-d]pyrimidin-6-yl)piperazin-1-yl)methanone] here?
**A.** < 100 nM

**Q.** `Cn1nc(-c2cc(C(F)(F)F)c(F)c(O)c2F)c2cnc(N3CCN(C(=O)Nc4ccccc4)CC3)nc21` [Compound 18.116, 4-(3-(2,4-Difluoro-3-hydroxy-5-(trifluoromethyl)phenyl)-1-methyl-1H-pyrazolo[3,4-d]pyrimidin-6-yl)-N-phenylpiperazine-1-carboxamide] was tested. Which IC50 did it give?
**A.** < 100 nM

**Q.** Which IC50 does the source give for `Cn1nc(-c2cc(C(F)(F)F)c(F)c(O)c2F)c2cnc(N(Cc3ccccc3)C3CC3)nc21` [Compound 18.117, 3-(6-(Benzyl(cyclopropyl)amino)-1-methyl-1H-pyrazolo[3,4-d]pyrimidin-3-y1)-2,6-difluoro-5-(trifluoromethyl)phenol] here?
**A.** < 100 nM

**Q.** For `Cn1nc(-c2cc(C(F)(F)F)c(F)c(O)c2F)c2cnc(N3CCN(S(C)(=O)=O)C(C#N)C3)nc21` (stereo not drawn) [Compound 18.118, 4-(3-(2,4-Difluoro-3-hydroxy-5-(trifluoromethyl)phenyl)-1-methyl-1H-pyrazolo[3,4-d]pyrimidin-6-yl)-1-(methylsulfonyl)piperazine-2-carbonitrile], which IC50 is on record?
**A.** < 100 nM

**Q.** For `Cn1nc(-c2cc(C(F)(F)F)c(F)c(O)c2F)c2cnc(N3CCOC(C)(c4ccccc4)C3)nc21` (stereo not drawn) [Compound 18.119, 2,6-Difluoro-3-(1-methyl-6-(2-methyl-2-phenylmorpholino)-1H-pyrazolo[3,4-d]pyrimidin-3-y1)-5-(trifluoromethyl)phenol], which IC50 is on record?
**A.** < 100 nM

**Q.** Which IC50 does the source give for `C[C@@H]1CN(C(=O)c2ccccc2)CCN1c1ncc2c(-c3cc(C(F)(F)F)c(F)c(O)c3F)nn(C)c2n1` [Compound 18.120, (R)-(4-(3-(2,4-Difluoro-3-hydroxy-5-(trifluoromethyl)phenyl)-1-methyl-1H-pyrazolo[3,4-d]pyrimidin-6-yl)-3-methylpiperazin-1-y1)(phenyl)methanone] here?
**A.** < 100 nM

**Q.** `Cn1nc(-c2cc(C(F)(F)F)c(F)c(O)c2F)c2cnc(N3CCN(C(=O)c4ccccn4)CC3)nc21` [Compound 18.121, (4-(3-(2,4-Difluoro-3-hydroxy-5-(trifluoromethyl)phenyl)-1-methyl-1H-pyrazolo[3,4-d]pyrimidin-6-yl)piperazin-1-yl)(pyridin-2-yl)methanone] was tested. Which IC50 did it give?
**A.** 100 to 1000 nM

**Q.** How did the IC50 turn out when `Cn1nc(-c2cc(C(F)(F)F)c(F)c(O)c2F)c2cnc(N3CCN(C(=O)c4ccncc4)CC3)nc21` [Compound 18.122, (4-(3-(2,4-Difluoro-3-hydroxy-5-(trifluoromethyl)phenyl)-1-methyl-1H-pyrazolo[3,4-d]pyrimidin-6-y1)piperazin-1-yl)(pyridin-4-yl)methanone] was run?
**A.** 100 to 1000 nM

— US20240083861A1, “HSD17B13 INHIBITORS AND USES THEREOF” (FL2022-001, Inc., priority 2020, published 2024)
